Values quoted from earlier work as cited in patent US9434994B2, “Methods for prediction of clinical outcome to epidermal growth factor receptor inhibitors by non-small cell lung cancer patients” (The Regents of the University of Colorado, a body corporate, priority 2004, dated 2016).

Legend:
advanced BAC patients = settings: cited from earlier work
[1] = tested on: chemotherapy resistant NSCLC patients; settings: single agent; cited from earlier work
NSCLC patients = settings: erlotinib versus placebo, second or third line; cited from earlier work

Row | SMILES | Median Survival (advanced BAC patients) [months] | response rates [1] | Hazard Ratio, survival (NSCLC patients)
1 | CC(=O)O[C@H]1C(=O)[C@@]2(C)[C@H]([C@H](OC(=O)c3ccccc3)[C@]3(O)C[C@H](OC(=O)[C@H](O)[C@@H](NC(=O)c4ccccc4)c4ccccc4)C(C)=C1C3(C)C)[C@]1(OC(C)=O)CO[C@@H]1C[C@@H]2O [paclitaxel] | 12 | – | –
2 | C#Cc1cccc(Nc2ncnc3cc(OCCOC)c(OCCOC)cc23)c1 [erlotinib] | – | about 10% | 0.73
